We go through 23 compounds from patent US10233188B2, “CDK2/4/6 inhibitors” (priority 2016, dated 2019).

Broadly, the Ki is the equilibrium dissociation constant of an inhibitor or competing ligand from its target. Read a high Ki as weaker binding.

For one experiment, the target named is CDK2/Cyclin E1 (Homo sapiens (Human), UniProt P24941). Kind of experiment: biochemical. Particulars: CDK2_Ki (nM), phosphorylated CDK2/Cyclin E1, 150 μM ATP, Morrison tight-binding fit.
A further experiment has as its target CDK6/Cyclin D1 (Homo sapiens (Human), UniProt Q00534). Kind of experiment: biochemical. The conditions noted are these: CDK6_Ki (nM), non-phosphorylated CDK6/Cyclin D1, 2 mM ATP, Morrison fit.

CDK6/Cyclin D1, sequence (Q00534 whole entry): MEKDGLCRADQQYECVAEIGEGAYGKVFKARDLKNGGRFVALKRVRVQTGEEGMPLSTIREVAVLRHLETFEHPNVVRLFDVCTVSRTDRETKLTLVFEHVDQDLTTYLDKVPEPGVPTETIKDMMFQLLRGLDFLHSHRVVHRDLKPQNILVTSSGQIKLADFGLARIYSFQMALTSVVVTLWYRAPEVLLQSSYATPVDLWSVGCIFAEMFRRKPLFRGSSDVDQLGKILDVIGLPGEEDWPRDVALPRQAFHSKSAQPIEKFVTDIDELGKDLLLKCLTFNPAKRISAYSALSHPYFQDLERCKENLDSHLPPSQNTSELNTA
CDK6/Cyclin D1, sequence (P24385 whole entry partner): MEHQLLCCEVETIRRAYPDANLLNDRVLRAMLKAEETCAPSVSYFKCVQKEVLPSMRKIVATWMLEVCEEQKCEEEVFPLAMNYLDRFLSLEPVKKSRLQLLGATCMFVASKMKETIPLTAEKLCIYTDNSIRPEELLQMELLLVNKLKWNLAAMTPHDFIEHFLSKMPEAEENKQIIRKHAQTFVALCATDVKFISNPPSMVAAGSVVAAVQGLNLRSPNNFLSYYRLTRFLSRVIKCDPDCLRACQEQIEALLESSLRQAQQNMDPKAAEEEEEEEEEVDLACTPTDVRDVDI
Experimental for CDK2/Cyclin E1: The assay was initiated with the addition of ATP, following a fifteen minutes pre-incubation of enzyme and inhibitor at room temperature in the reaction mixture. The reaction was stopped after 45 minutes at room temperature by the addition of 50 μL of 80 mM EDTA, pH 7.5.

Regarding `CS(=O)(=O)N1CCC(Nc2ncc3cc(CC(F)F)c(=O)n([C@@H]4CC[C@@H](O)C4)c3n2)CC1` (single isomer, unassigned) [Example 172, (−)-6-(2,2-difluoroethyl)-8-[(1R*,3R*)-3-hydroxycyclopentyl]-2-{[1-(methylsulfonyl)piperidin-4-yl]amino}pyrido[2,3-d]pyrimidin-7(8H)-one], the inhibition constant (Ki) worked out at 4.38 nM at CDK2/Cyclin E1 and 2.08 nM on CDK6/Cyclin D1.
Turning to `CNS(=O)(=O)N1CCC(Nc2ncc3cc(Cl)c(=O)n([C@@H]4CCC[C@@]4(C)O)c3n2)CC1` (single isomer, unassigned) [Example 126, (−)-4-({6-chloro-8-[(1R*,2R*)-2-hydroxy-2-methylcyclopentyl]-7-oxo-7,8-dihydropyrido[2,3-d]pyrimidin-2-yl}amino)-N-methylpiperidine-1-sulfonamide], the Ki on CDK2/Cyclin E1 turned out to be 0.2 nM; on CDK6/Cyclin D1, 0.96 nM.
For `CS(=O)(=O)N1CCC(Nc2ncc3cc(CCO)c(=O)n(C4CCCCCC4)c3n2)CC1` [Example 165, 8-cycloheptyl-6-(2-hydroxyethyl)-2-{[1-(methylsulfonyl)piperidin-4-yl]amino}-pyrido[2,3-d]pyrimidin-7(8H)-one], the Ki on CDK2/Cyclin E1 worked out at 1.51 nM; on CDK6/Cyclin D1, 2.65 nM.
`COCCS(=O)(=O)N1CCC(Nc2ncc3ccc(=O)n([C@H]4CCC[C@]4(C)O)c3n2)CC1` (single isomer, unassigned) [Example 73, (+)-8-[(1R*,2R*)-2-hydroxy-2-methylcyclopentyl]-2-({1-[(2-methoxyethyl)sulfonyl]piperidin-4-yl}amino)pyrido[2,3-d]pyrimidin-7(8H)-one]: the Ki on CDK2/Cyclin E1 worked out at 5.03 nM; on CDK6/Cyclin D1 it was 8.95 nM.
As for `C[C@]1(O)CCC[C@@H]1n1c(=O)c(CC#N)cc2cnc(NC3CCN(S(C)(=O)=O)CC3)nc21` (single isomer, unassigned) [Example 121, (+)-(8-[(1R*,2R*)-2-hydroxy-2-methylcyclopentyl]-2-{[1-(methylsulfonyl)piperidin-4-yl]amino}-7-oxo-7,8-dihydropyrido[2,3-d]pyrimidin-6-yl)acetonitrile], the Ki on CDK2/Cyclin E1 worked out at 2.15 nM; at CDK6/Cyclin D1, 0.82 nM.
With `Cn1cc(S(=O)(=O)N2CCC(Nc3ncc4ccc(=O)n([C@@H]5CCC[C@@]5(C)O)c4n3)CC2)cn1` (single isomer, unassigned) [Example 82, (−)-8-[(1R*,2R*)-2-hydroxy-2-methylcyclopentyl]-2-({1-[(1-methyl-1H-pyrazol-4-yl)sulfonyl]piperidin-4-yl}amino)pyrido[2,3-d]pyrimidin-7(8H)-one], the Ki was 0.1 nM on CDK2/Cyclin E1 and 1.21 nM at CDK6/Cyclin D1.
As for `CS(=O)(=O)N1CCC(Nc2ncc3cc(Cl)c(=O)n([C@H]4CC[C@H](O)C4)c3n2)CC1` (single isomer, unassigned) [Example 169, (+)-6-chloro-8-[(1R*,3R*)-3-hydroxycyclopentyl]-2-{[1-(methylsulfonyl)piperidin-4-yl]amino}pyrido[2,3-d]pyrimidin-7(8H)-one], the Ki amounted to 2.76 nM on CDK2/Cyclin E1 and 1.11 nM on CDK6/Cyclin D1.
With `Cc1cc2cnc(NC3CCN(S(C)(=O)=O)CC3)nc2n([C@@H]2CCC[C@@H](O)C2)c1=O` (single isomer, unassigned) [Example 32, (+)-8-[(1R*,3R*)-3-hydroxycyclohexyl]-6-methyl-2-{[1-(methylsulfonyl)piperidin-4-yl]amino}pyrido[2,3-d]pyrimidin-7(8H)-one], the Ki turned out to be 0.84 nM at CDK2/Cyclin E1 and 1.1 nM at CDK6/Cyclin D1.
Regarding `C[C@@]1(O)CCC[C@H]1n1c(=O)c(Cl)cc2cnc(N[C@@H]3CCN(S(C)(=O)=O)C[C@@H]3F)nc21` (single isomer, unassigned) [Example 192, (+)-6-chloro-2-{[(3R*,4S*)-3-fluoro-1-(methylsulfonyl)piperidin-4-yl]amino}-8-[(1R,2R)-2-hydroxy-2-methylcyclopentyl]pyrido[2,3-d]pyrimidin-7(8H)-one], the Ki on CDK2/Cyclin E1 was 20.9 nM; on CDK6/Cyclin D1 it was 10.1 nM.
The like results for `CS(=O)(=O)N1CCC(Nc2ncc3cc(C(F)F)c(=O)n([C@@H]4CCC[C@@H](O)C4)c3n2)CC1` [Example 212, 6-(difluoromethyl)-8-[(1R,3R)-3-hydroxycyclohexyl]-2-{[1-(methylsulfonyl)piperidin-4-yl]amino}pyrido[2,3-d]pyrimidin-7(8H)-one] were, in that order, 1.2 nM and 0.17 nM.
For the compound `Cc1cc2cnc(NC3CCN(S(=O)(=O)NC4CCOCC4)CC3)nc2n([C@H]2CCC[C@]2(C)O)c1=O` (single isomer, unassigned) [Example 97, (+)-4-({8-[(1R*,2R*)-2-hydroxy-2-methylcyclopentyl]-6-methyl-7-oxo-7,8-dihydropyrido[2,3-d]pyrimidin-2-yl}amino)-N-(tetrahydro-2H-pyran-4-yl)piperidine-1-sulfonamide], the Ki was determined as 2.47 nM on CDK2/Cyclin E1 and 11.8 nM on CDK6/Cyclin D1.
For the compound `CCS(=O)(=O)N1CCC(Nc2ncc3ccc(=O)n([C@@H]4CCC[C@@]4(C)O)c3n2)CC1` (single isomer, unassigned) [Example 76, (−)-2-{[1-(ethylsulfonyl)piperidin-4-yl]amino}-8-[(1R*,2R*)-2-hydroxy-2-methylcyclopentyl]pyrido[2,3-d]pyrimidin-7(8H)-one], the inhibition constant Ki amounted to 0.21 nM at CDK2/Cyclin E1 and 1.24 nM at CDK6/Cyclin D1.
As to `CC(=O)c1c(C)c2cnc(NC3CCN(S(C)(=O)=O)CC3)nc2n([C@@H]2CCC[C@@]2(C)O)c1=O` (single isomer, unassigned) [Example 177, (−)-6-acetyl-8-[(1R*,2R*)-2-hydroxy-2-methylcyclopentyl]-5-methyl-2-{[1-(methylsulfonyl)piperidin-4-yl]amino}pyrido[2,3-d]pyrimidin-7(8H)-one], the Ki came to 1.22 nM on CDK2/Cyclin E1 and 0.14 nM at CDK6/Cyclin D1.
On to `Cc1cc2cnc(NC3CCN(S(C)(=O)=O)CC3)nc2n([C@@H]2C[C@H](O)C[C@@H]2C)c1=O` (single isomer, unassigned) [Example 199, (−)-8-[(1R*,2S*,4R*)-4-hydroxy-2-methylcyclopentyl]-6-methyl-2-{[1-(methylsulfonyl)piperidin-4-yl]amino}pyrido[2,3-d]pyrimidin-7(8H)-one], for which the Ki came out at 2.92 nM at CDK2/Cyclin E1 and 1.09 nM on CDK6/Cyclin D1.
With `CCS(=O)(=O)N1CCC(Nc2ncc3cc(C)c(=O)n([C@@H]4CCC[C@@]4(C)O)c3n2)CC1` (single isomer, unassigned) [Example 110, (−)-2-{[1-(ethylsulfonyl)piperidin-4-yl]amino}-8-[(1R*,2R*)-2-hydroxy-2-methylcyclopentyl]-6-methylpyrido[2,3-d]pyrimidin-7(8H)-one], the Ki is 0.1 nM at CDK2/Cyclin E1 and 0.28 nM at CDK6/Cyclin D1.
Turning to `Cc1cc2cnc(NC3CCN(S(=O)(=O)C4CCS(=O)(=O)C4)CC3)nc2n([C@@H]2CCC[C@@]2(C)O)c1=O` (single isomer, unassigned; isomer a) [Example 106, (−)-2-[(1-{[(3ξ)-1,1-dioxidotetrahydrothiophen-3-yl]sulfonyl}piperidin-4-yl)amino]-8-[(1R*,2R*)-2-hydroxy-2-methylcyclopentyl]-6-methylpyrido[2,3-d]pyrimidin-7(8H)-one-Isomer A], the results for the Ki at CDK2/Cyclin E1 and on CDK6/Cyclin D1 were 0.16 nM and 0.11 nM, respectively.
The like results for `Cc1cc2cnc(NC3CCN(S(C)(=O)=O)CC3)nc2n(C2CCCCC(O)C2)c1=O` (single isomer, unassigned; isomer c) [Example 225, 8-(3-hydroxycycloheptyl)-6-methyl-2-{[1-(methylsulfonyl)piperidin-4-yl]amino}pyrido[2,3-d]pyrimidin-7(8H)-one-Isomer C] were, in that order, 4.63 nM and 3.13 nM.
On to `C[C@@]1(O)CCC[C@H]1n1c(=O)c(CC(N)=O)cc2cnc(NC3CCN(S(C)(=O)=O)CC3)nc21` (single isomer, unassigned) [Example 179, (−)-2-(8-[(1R*,2R*)-2-hydroxy-2-methylcyclopentyl]-2-{[1-(methylsulfonyl)piperidin-4-yl]amino}-7-oxo-7,8-dihydropyrido[2,3-d]pyrimidin-6-yl)acetamide], for which the Ki at CDK2/Cyclin E1 turned out to be 0.38 nM; on CDK6/Cyclin D1, 2.18 nM.
`Cc1cc2cnc(NC3CCN(S(C)(=O)=O)CC3)nc2n([C@H]2CC[C@H](O)C2)c1=O` (single isomer, unassigned) [Example 168, (+)-8-[(1R*,3R*)-3-hydroxycyclopentyl]-6-methyl-2-{[1-(methylsulfonyl)piperidin-4-yl]amino}pyrido[2,3-d]pyrimidin-7(8H)-one]: the Ki at CDK2/Cyclin E1 was 1.31 nM; on CDK6/Cyclin D1 it was 1.34 nM.
In the same order, the values of `CS(=O)(=O)N1CCC(Nc2ncc3cc(CC(N)=O)c(=O)n([C@@H]4CCC[C@@H](O)C4)c3n2)CC1` (single isomer, unassigned) [Example 213, (+)-2-(8-[(1R*,3R*)-3-hydroxycyclohexyl]-2-{[1-(methylsulfonyl)piperidin-4-yl]amino}-7-oxo-7,8-dihydropyrido[2,3-d]pyrimidin-6-yl)acetamide] are 1.73 nM and 9.15 nM.
Turning to `C#CCCS(=O)(=O)N1CCC(Nc2ncc3cc(N)c(=O)n(C4CCCC4)c3n2)CC1` [Example 137, 6-amino-2-{[1-(but-3-yn-1-ylsulfonyl)piperidin-4-yl]amino}-8-cyclopentylpyrido[2,3-d]pyrimidin-7(8H)-one], the inhibition constant (Ki) amounted to 4.08 nM on CDK2/Cyclin E1 and 6.3 nM on CDK6/Cyclin D1.
In the case of `NS(=O)(=O)N1CCC(Nc2ncc3ccc(=O)n(C4CCCCCC4)c3n2)CC1` [Example 21, 4-[(8-cycloheptyl-7-oxo-7,8-dihydropyrido[2,3-d]pyrimidin-2-yl)amino]piperidine-1-sulfonamide], the Ki at CDK2/Cyclin E1 was found to be 0.29 nM; on CDK6/Cyclin D1 it was 7 nM.
Regarding `CNS(=O)(=O)N1CCC(Nc2ncc3cc(CCO)c(=O)n(C4CCCC4)c3n2)CC1` [Example 146, 4-{[8-cyclopentyl-6-(2-hydroxyethyl)-7-oxo-7,8-dihydropyrido[2,3-d]pyrimidin-2-yl]amino}-N-methylpiperidine-1-sulfonamide], the results for the Ki on CDK2/Cyclin E1 and at CDK6/Cyclin D1 were 1.51 nM and 1.1 nM, respectively.
